Results: patent US20160067425A1, “DEVICES AND METHODS FOR TREATING TISSUES AND TISSUE CONDITIONS” (priority 2014, published 2016)

Legend:
[1] = tested on: basal cell carcinoma (BCC); test: Intralesional treatment of clamp-isolated basal cell carcinoma on the ear lobe (Example 1); assay type: in vivo, human
Experimental: A person with basal cell carcinoma (one year history of asymptomatic growth) on their left ear lobe was treated by mechanically isolating the basal cell carcinoma (BCC). Diagnosis of BCC was made based on the lesion's clinical presentation as a well-circumscribed pearly nodule with central crusted ulceration (see FIG. 14A) and the results of a shave biopsy (see FIG. 15A). The patient refused surgical therapy.
A chalazion clamp was used to isolate the tissue surrounding the BCC. One fifth unit (0.2 cc×1 unit/cc) of bleomycin in 1% lidocaine was injected into the clamped region (systemic bleomycin concentrations are typically in the range of 0.00023 units/mL or about 1000×lower). […] After 20 minutes, an 18-gauge needle was used to remove most of the injected fluid from the clamped area. The chalazion clamp was then removed.

[2] = typical systemic range, compared with 1 unit/cc injected; cited from earlier work

For bleomycin, the “adverse effects / patient complaints” value ([1]; 0.2 unit intralesional in clamped region, 20 minutes) was “no adverse effects”, the “retention of injected agent in the pressure isolated region” value ([1]; chalazion clamp, evidenced by localized raised and stretched area of the skin) was “remained within the clamped area” and the “clinical appearance of the BCC after treatment” value ([1]; patient, left ear lobe, 0.2 cc x 1 unit/cc in 1% lidocaine injected into chalazion-clamped region, removed after 20 minutes, 25-days post-treatment) was “clinically cured”. The “histology from 4 mm punch biopsy after treatment” value ([1]; post-treatment punch biopsy, FIG. 15B) was “confirm by histology” and the “systemic concentrations typically used” value [2] was about 0.00023 units/mL.
